Assay results: PubChem BioAssay AID248 (DTP/NCI, 2004)
Where “and” joins values, the source holds several entries; their conditions need not be identical. Equal entries are not always repeated. Inconclusive results and toxic doses are left out. Cut-off read from the data, not from the text of the source: active = T/C of 150% or more; inactive = T/C below 125%.

System: L1210 leukemia ip in BDF1 mice, survival T/C
Assay: NCI In Vivo Anticancer Drug Screen. Data for tumor model L1210 Leukemia (intraperitoneal) in B6D2F1 (BDF1) mice
Conditions: endpoint: mean survival time, higher = longer survival
Outline: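 Antitumor effect is assessed in tumor-bearing animals. Survival in the compound arm is compared with a vehicle-dosed control arm and expressed as their quotient.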

[1] = dose: 100.0 mg/kg/injection, schedule: Q04DX003 (ip), vehicle: saline with Tween-80
[2] = dose: 200.0 mg/kg/injection, schedule: Q04DX003 (ip), vehicle: saline with Tween-80
[3] = dose: 400.0 mg/kg/injection, schedule: Q04DX003 (ip), vehicle: saline with Tween-80
[4] = dose: 100.0 mg/kg/injection, schedule: Q04DX003 (ip), vehicle: Klucel (hydroxypropylcellulose) (HPC)
[5] = dose: 400.0 mg/kg/injection, schedule: Q04DX003 (ip), vehicle: Klucel (hydroxypropylcellulose) (HPC)
[6] = dose: 100.0 mg/kg/injection, schedule: Q01DX001 (ip), vehicle: other
[7] = dose: 200.0 mg/kg/injection, schedule: Q01DX001 (ip), vehicle: other
[8] = dose: 400.0 mg/kg/injection, schedule: Q01DX001 (ip), vehicle: other

Measured: T/C

CC(C)=CCC1=C(O)c2ccccc2C(=O)C1=O
inactive: dose: 0.5 mg/kg/injection, schedule: Q01DX Z (ip), vehicle: water 91 % of control | dose: 2.0 mg/kg/injection, schedule: Q01DX Z (ip), vehicle: water 94 % of control | dose: 8.0 mg/kg/injection, schedule: Q01DX Z (ip), vehicle: water 91 % of control | dose: 11.0 mg/kg/injection, schedule: Q01DX009 (ip), vehicle: carboxymethylcellulose (CMC) 107 % of control | dose: 11.0 mg/kg/injection, schedule: Q01DX009 (ip), vehicle: other 95 % of control and 102 % of control | dose: 15.0 mg/kg/injection, schedule: Q01DX Z (ip), vehicle: water 88 % of control | dose: 16.67 mg/kg/injection, schedule: Q#B X027 (ip), vehicle: water 111 % of control | dose: 16.67 mg/kg/injection, schedule: Q#B X027 (sc), vehicle: water 97 % of control | dose: 17.0 mg/kg/injection, schedule: Q01DX009 (ip), vehicle: carboxymethylcellulose (CMC) 98 % of control | dose: 17.0 mg/kg/injection, schedule: Q01DX009 (ip), vehicle: other 94 % of control and 103 % of control | dose: 20.0 mg/kg/injection, schedule: Q01DX Z (ip), vehicle: water 96 % of control | dose: 25.0 mg/kg/injection, schedule: Q01DX009 (ip), vehicle: carboxymethylcellulose (CMC) 103 % of control | dose: 25.0 mg/kg/injection, schedule: Q01DX009 (ip), vehicle: other 95 % of control and 97 % of control | dose: 25.0 mg/kg/injection, schedule: Q#A X Z (ip), vehicle: water 90 % of control | dose: 30.0 mg/kg/injection, schedule: Q01DX Z (ip), vehicle: water 88 % of control | dose: 33.33 mg/kg/injection, schedule: Q#B X027 (oral), vehicle: water 100 % of control | dose: 33.33 mg/kg/injection, schedule: Q#B X027 (sc), vehicle: water 100 % of control | dose: 37.5 mg/kg/injection, schedule: Q01DX009 (ip), vehicle: carboxymethylcellulose (CMC) 98 % of control | dose: 37.5 mg/kg/injection, schedule: Q01DX009 (ip), vehicle: other 100 % of control and 102 % of control | dose: 40.0 mg/kg/injection, schedule: Q01DX Z (ip), vehicle: water 96 % of control | dose: 50.0 mg/kg/injection, schedule: Q01DX015 (ip), vehicle: water 95 % of control | dose: 50.0 mg/kg/injection, schedule: Q#A X Z (ip), vehicle: water 97 % of control | dose: 56.0 mg/kg/injection, schedule: Q01DX009 (ip), vehicle: carboxymethylcellulose (CMC) 102 % of control | dose: 60.0 mg/kg/injection, schedule: Q01DX Z (ip), vehicle: water 94 % of control | dose: 66.67 mg/kg/injection, schedule: Q#B X027 (ip), vehicle: water 120 % of control | dose: 66.67 mg/kg/injection, schedule: Q#B X027 (oral), vehicle: water 97 % of control | dose: 66.67 mg/kg/injection, schedule: Q#B X027 (sc), vehicle: water 100 % of control | dose: 84.0 mg/kg/injection, schedule: Q01DX009 (ip), vehicle: other 102 % of control and 104 % of control | dose: 90.0 mg/kg/injection, schedule: Q01DX Z (ip), vehicle: water 92 % of control | dose: 100.0 mg/kg/injection, schedule: Q01DX Z (oral), vehicle: water 91 % of control | dose: 100.0 mg/kg/injection, schedule: Q#A X Z (ip), vehicle: water 95 % of control | dose: 125.0 mg/kg/injection, schedule: Q#A X018 (oral), vehicle: other 102 % of control | dose: 126.0 mg/kg/injection, schedule: Q01DX009 (ip), vehicle: other 101 % of control and 104 % of control | dose: 133.33 mg/kg/injection, schedule: Q#B X027 (oral), vehicle: water 102 % of control | dose: 135.0 mg/kg/injection, schedule: Q01DX Z (ip), vehicle: water 94 % of control | dose: 189.0 mg/kg/injection, schedule: Q01DX009 (ip), vehicle: other 109 % of control and 122 % of control | dose: 200.0 mg/kg/injection, schedule: Q01DX001 (oral), vehicle: other 114 % of control | dose: 200.0 mg/kg/injection, schedule: Q01DX Z (ip), vehicle: water 102 % of control | dose: 200.0 mg/kg/injection, schedule: Q01DX Z (oral), vehicle: water 96 % of control | dose: 250.0 mg/kg/injection, schedule: Q#A X018 (oral), vehicle: other 97 % of control | dose: 300.0 mg/kg/injection, schedule: Q01DX Z (oral), vehicle: water 98 % of control | dose: 400.0 mg/kg/injection, schedule: Q01DX001 (oral), vehicle: other 100 % of control | dose: 600.0 mg/kg/injection, schedule: Q01DX001 (oral), vehicle: other 98 % of control | dose: 900.0 mg/kg/injection, schedule: Q01DX001 (oral), vehicle: other 96 % of control

O/N=C1/C=C(c2ccccc2)C(O)(c2ccccc2)C1 (centres undefined)
inactive: [1] 102 % of control | [2] 96 % of control | [3] 93 % of control

O=C(/C=C(\CN1CCCCC1)c1ccccc1)c1ccccc1
inactive: [4] 96 % of control | [5] 96 % of control

CC1=CCC2(C)C(=O)C1CC1=C2CC(C)(C)CC1=O (centres undefined)
inactive: dose: 100.0 mg/kg/injection, schedule: Q01DX009 (ip), vehicle: saline 92 % of control | [4] 101 % of control | dose: 200.0 mg/kg/injection, schedule: Q01DX009 (ip), vehicle: saline 94 % of control | dose: 200.0 mg/kg/injection, schedule: Q04DX003 (ip), vehicle: Klucel (hydroxypropylcellulose) (HPC) 98 % of control | dose: 400.0 mg/kg/injection, schedule: Q01DX009 (ip), vehicle: saline 101 % of control | [5] 98 % of control

N#CCCP(=S)(c1ccccc1)c1ccccc1
inactive: [6] 104 % of control | dose: 100.0 mg/kg/injection, schedule: Q04DX003 (ip), vehicle: other 102 % of control | [7] 98 % of control | dose: 200.0 mg/kg/injection, schedule: Q04DX003 (ip), vehicle: other 96 % of control | [8] 102 % of control | dose: 400.0 mg/kg/injection, schedule: Q04DX003 (ip), vehicle: other 90 % of control

CCCCCCCN(CCCCCCC)C(C)=O
inactive: [6] 93 % of control | [7] 93 % of control | [8] 93 % of control

COC(=O)C(=C/C=C/c1cc(O)c(O)c(O)c1)C(=O)OC
inactive: dose: 50.0 mg/kg/injection, schedule: Q01DX001 (ip), vehicle: other 104 % of control | [6] 98 % of control | [7] 95 % of control

O=C(c1ccc(Cl)cc1Cl)C(Cl)Cl
inactive: dose: 30.0 mg/kg/injection, schedule: Q01DX015 (ip), vehicle: saline 98 % of control | dose: 60.0 mg/kg/injection, schedule: Q01DX015 (ip), vehicle: saline 91 % of control | dose: 120.0 mg/kg/injection, schedule: Q01DX015 (ip), vehicle: saline 98 % of control

O=C(NCc1ccccc1)C1C2C=CC(CC2)C1C(=O)NCc1ccccc1 (centres undefined)
inactive: [1] 96 % of control | [2] 96 % of control | [3] 87 % of control

CCCCCCN(CCCCCC)CCC(=O)c1ccc2cc(Br)c3ccccc3c2c1
inactive: dose: 13.3 mg/kg/injection, schedule: Q01DX Z (ip), vehicle: methylcellulose (MC) 92 % of control | dose: 20.0 mg/kg/injection, schedule: Q01DX Z (ip), vehicle: methylcellulose (MC) 86 % of control | dose: 30.0 mg/kg/injection, schedule: Q01DX Z (ip), vehicle: methylcellulose (MC) 92 % of control

CC(=O)Nc1cccc(OCCCOc2ccc([N+](=O)[O-])cc2)c1
inactive: dose: 100.0 mg/kg/injection, schedule: Q01DX001 (ip), vehicle: carboxymethylcellulose (CMC) 95 % of control | dose: 200.0 mg/kg/injection, schedule: Q01DX001 (ip), vehicle: carboxymethylcellulose (CMC) 101 % of control | dose: 400.0 mg/kg/injection, schedule: Q01DX001 (ip), vehicle: carboxymethylcellulose (CMC) 90 % of control
